Target: T1, Human Polymorphonuclear Leukocyte Elastase (Homo sapiens, UniProt P08246)
T1 construct: Crude extract of human polymorphonuclear leukocytes (PMN) containing elastase activity; endogenous in cells; host or cells: human polymorphonuclear leukocytes (crude extract)
T1 sequence (P08246 30-247 limits assumed): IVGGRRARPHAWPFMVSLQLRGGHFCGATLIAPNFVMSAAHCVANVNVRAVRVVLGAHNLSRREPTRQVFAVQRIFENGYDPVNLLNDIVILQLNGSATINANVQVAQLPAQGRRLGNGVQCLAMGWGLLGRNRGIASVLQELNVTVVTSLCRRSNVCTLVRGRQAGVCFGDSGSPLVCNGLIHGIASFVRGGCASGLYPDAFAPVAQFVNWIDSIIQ
Assay: Inhibition of human polymorphonuclear leukocyte (PMN) elastase via hydrolysis of N-t-Boc-alanyl-alanyl-prolyl-alanine-p-nitroanilide (two point or "zero time" assay)
Format: biochemical
Details: 50% inhibition of the enzyme activity 2 minutes after zero time; crude human PMN extract; 0.2 mM Boc-AAPAN, pH 7.5, 410 nm; read-out: ED50 (the source's name) (converted)
Description: It is generally understood that the enzyme of interest is that enzyme against which the inhibitory activity of the fermentation broth samples are being determined and quantified (e.g., PMN elastase). Consequently, all of the remaining wells are charged with the same enzyme of interest. However, several enzymes of interest can be charged to a plurality of wells, and the wells grouped together to facilitate separate identification and assay. When this is done, separate control wells must then also be prepared to correspond to the different enzymes of interest.
The chromogenic medium is charged to all the wells at substantially the same time and the time of this addition is noted. This is the "zero time" mentioned earlier as it is from that moment that a predetermined time lapse is measured during which sufficient reaction between the fermentation broth samples and the enzyme of interest occurs to enable not only accurate screening of enzyme inhibitory activity, but also the degree of that activity. Naturally, the predetermined time lapse will differ with different enzymes and can be from about 1 minute to about 20 minutes, typically from about 2 minutes to about 10 minutes.
The chromogenic media typically used are aromatic nitro- containing compounds. Illustrative of such compounds are Boc-ala-ala-pro-ala-p-nitroanilide, -α-benzoyl-DL-arginine-p-nitroanilide, N-α-benzoyl-L-tyrosine-p-nitroanilide, and the like.
Using the two point or "zero time" assay method described above, the following protocol was employed:
Enzyme Assays for the Inhibition of Human Polymorphonuclear Leukocyte Elastase Via Hydrolysis of N-t-Boc-alanyl-alanyl-prolylalanine-p-nitroanilide
0.05M TES (N-tris[hydroxymethyl]methyl-2-amino-ethanesulfonic acid) Buffer, pH 7.5.
0.2 mM N-t-Boc-alanyl-alanyl-prolyl-alanine-p-nitroanilide (Boc-AAPAN).
To prepare substrate, the solid (m.w. 550) was first dissolved in 10.1 ml DMSO. Buffer at pH 7.5 was then added to a final volume of 100 ml.
Crude extract of human polymorphonuclear leukocytes (PMN) containing elastase activity.
Inhibitors (cephalosporin sulfone esters) to be tested dissolved in DMSO just before use.
To 1.0 ml of 0.2 mM Boc-AAPAN in a cuvette, 0.01-0.1 ml of DMSO with or without inhibitor was added. After mixing, a measurement was taken at 410 nm to detect any spontaneous hydrolysis due to presence of test compound. 0.05 Milliliters of PMN extract was then added and the ΔOD/min at 410 nm was measured and recorded. A Beckman model 35 spectrophotometer was used.
Results were reported as ED50, i.e., effective dosage in micrograms per milliliter (μg/ml) for 50% inhibition of the enzyme activity 2 minutes after zero time.
The elastase activity in the crude PMN extract may vary from one preparation to another. A control of each new batch is run, and the volume added in the assay procedure is adjusted according to activity.

Row | Compound | IC50 [µM]
1 | C=C(CCC(C)[C@H]1CC=C2C3=C([C@@H](O)[C@H](OC(C)=O)C21C)C1(C)C[C@@H](O)[C@H](OS(=O)(=O)O)C(C)(C)[C@@H]1CC3)C(C)C (some centres unmarked) [Compound 1] | 2.35
2 | C=C(CCC(C)[C@H]1CC=C2C3=C([C@@H](OC(C)=O)[C@H](OC(C)=O)C21C)C1(C)C[C@@H](OC(C)=O)[C@H](OS(=O)(=O)O)C(C)(C)[C@@H]1CC3)C(C)C (some centres unmarked) [Compound 10] | 262
3 | C=C(CCC(C)[C@H]1CCC2C3=C([C@@H](O)[C@H](OC(C)=O)C21C)C1(C)C[C@@H](O)[C@H](OS(=O)(=O)O)C(C)(C)[C@@H]1CC3)C(C)C (some centres unmarked) [Compound 2] | 2.51
4 | C=C(CCC(C)[C@H]1CC=C2C3=C([C@@H](O)[C@H](OC(C)=O)C21C)C1(C)C[C@@H](O)[C@H](O)C(C)(C)[C@@H]1CC3)C(C)C (some centres unmarked) [Compound 5] | 1.75
5 | C=C(CCC(C)[C@H]1CC=C2C3=C([C@@H](O)[C@H](O)C21C)C1(C)C[C@@H](O)[C@H](OS(=O)(=O)O)C(C)(C)[C@@H]1CC3)C(C)C (some centres unmarked) [Compound 11] | 3.44

From patent US4871727A, “Anti-inflammatory and antidegenerative compounds isolated from L-681,512” (Merck & Co, Inc., priority 1987, dated 1989)
